# In patent publication US12042478B2, “(R)-2-[(2H-1,3-benzodioxol-5-yl)methyl]pyrrolidine and processes for preparation, compositions and uses thereof” (Pharmala Biotech Inc., priority 2022, dated 2024):
# Columns and labels:
# Assay type in all cases: in vivo, mouse
# C57 and BTBR mice [1] = experiment: Social preference procedure: novelty preference test; conditions: 1 mg/kg IP
# Experimental: All drugs were dissolved in physiological 0.9% saline and administered at a constant volume of 1 ml/100 g body weight. Because all drugs utilized in these studies were synthesized as hydrochloride (HCl) salts, they were weighed as salts prior to the preparation of all solutions. All drugs at all concentrations are readily dissolved in an aqueous solution at normal pH. Injections of all drugs were administered intraperitoneally (IP) to mimic pharmacokinetic parameters typical of oral administration, without the behaviour-impairing effects of gavage stress.
# This assay was conducted in adult male C57 and BTBR mice (n=6 per group) in a dedicated conditioning room where ambient light, sound, and human contact were tightly controlled.
# Social preference chambers consisted of two polycarbonate boxes (13.5 cm wide×22.5 cm tall×31.0 cm deep), floored with rough-textured black ABS plastic, and connected to one another by a 1.25″ PVC T-junction. An infrared photobeam emitter/detector array was mounted at each intersection of the T-junction and each preference compartment, and as a mouse traversed the apparatus, it would break the photobeam upon entry to or exit from each preference compartment. Beam breaks started or stopped a counter on an interfaced computer, allowing automated collection of time spent in each compartment. At the end of each test, data were reported as time (in seconds) spent in each compartment, the number of entries into each compartment, and the average time spent in each compartment following an entry. Social preference tests were conducted in an iterative manner, with each test subject completing four distinct phases as described below. Between testing sessions, chambers were sanitized by wiping the insides with a disinfectant product provided by the UAMS Department of Laboratory Animal Medicine. At the end of the week (upon completion of all phases of the procedure), each apparatus was disassembled and all parts were sanitized. No food or water were available during social preference sessions, but were available in the home cage immediately afterwards. […]
# C57 and BTBR mice [2] = experiment: Compartment entries during social novelty test (proxy for locomotor stimulant effects); conditions: for total entries during social novelty test: relative to saline; for compartment entries during social novelty test, change of stimulation with dose: various doses
# Excerpt: Social preference chambers consisted of two polycarbonate boxes (13.5 cm wide×22.5 cm tall×31.0 cm deep), floored with rough-textured black ABS plastic, and connected to one another by a 1.25″ PVC T-junction. An infrared photobeam emitter/detector array was mounted at each intersection of the T-junction and each preference compartment, and as a mouse traversed the apparatus, it would break the photobeam upon entry to or exit from each preference compartment. Beam breaks started or stopped a counter on an interfaced computer, allowing automated collection of time spent in each compartment. At the end of each test, data were reported as time (in seconds) spent in each compartment, the number of entries into each compartment, and the average time spent in each compartment following an entry. Social preference tests were conducted in an iterative manner, with each test subject completing four distinct phases as described below. Between testing sessions, chambers were sanitized by wiping the insides with a disinfectant product provided by the UAMS Department of Laboratory Animal Medicine. At the end of the week (upon completion of all phases of the procedure), each apparatus was disassembled and all parts were sanitized. No food or water were available during social preference sessions, but were available in the home cage immediately afterwards.
# Quantifying total entries into the preference compartments provides a proxy measurement for locomotor stimulant effects of the various doses of the various test drugs. This establishes a limit to the drug doses that can be tested in the social preference procedure, as induction of locomotor stimulant effects confounds preference assessments (because mice stop attending to the social stimuli in each compartment and instead spend their time engaged in locomotor behavior.) Motor activity varies across the distinct phases of social preference testing, in part because the habituation session is twice as long (30 minutes) as the novelty, sociability, and social novelty tests (15 minutes each), but also because mice emit high levels of exploratory behavior in novel environments. Thus, as familiarity with the test apparatus increases over successive exposures to the chambers, the number of entries decreases.
# (Note that entries were collected for every test, but drug effects on entries during earlier phases may be less reliable due to the confounding influence of changing familiarity with the apparatus across phases.)
# C57 and BTBR mice [3] = experiment: Radiotelemetry of core temperature; conditions: for core body temperature change: 5.6 mg/kg IP; for effect on core temperature: 10 mg/kg; for core temperature response, comparison of strains: C57 vs BTBR mice
# Experimental: The radiotelemetry assay was conducted in adult male C57 and BTBR mice (n=6 per group) in a dedicated testing room where ambient light, sound, and human contact were tightly controlled.
# Prior to surgical implantation of radiotelemetry probes, mice received 3 mg/kg meloxicam (IP), and anesthesia was induced with 4% inhaled isoflurane and maintained with 1-3% isoflurane (as needed) throughout the procedure at a flow rate of 1.5 litres/minute. The abdominal area of each animal was treated with depilatory cream, then sanitized with 3 alternating scrubs with iodine and alcohol. A rostral-caudal cut approximately 1.5 cm in length was made with sterile skin scissors, providing access to the intraperitoneal cavity. A cylindrical glass-encapsulated radiotelemetry probe (model ER-4000 E-Mitter, Mini Mitter, Bend, OR, USA) was then inserted. These probes measure 15.5 mm×6.5 mm and weigh approximately 1 gram. Incisions were closed (skin layer and muscle layer separately) using reverse cutting 5-0 Vicryl absorbable sutures for the muscle layer and 5-0 nylon suture material for the skin layer. Surgeries were carried out at least 7 days before initiation of experimental conditions, allowing time for incisions to heal and for animals to recover normal body weights. Following surgery, all implanted mice were individually housed in Plexiglas cages within the telemetry room for the duration of all experiments. Implanted transmitters produce activity- and temperature-modulated signals which are sent to a receiver (model ER-4000 Receiver, Mini Mitter Co., Inc.) underneath each cage. Following use, telemetry probes were removed from carcasses, wiped with alcohol swabs, and stored in the disinfectant solution until re-use.
# At least 7 days after surgical implantation of radiotelemetry probes, mice in their individual home cages were placed atop a telemetry energizer/receiver, which powers probes and transmits their data to an interfaced computer. Upon initiation of an experimental session, the computer collects two data updates from the probes at 5 min intervals: core temperature (in ° C.) on one channel, and locomotor counts (in arbitrary units, depending on the relative position of the probe atop the receiver) on the other. After at least 60 minutes of baseline data collection, mice were removed from their cages, injected with saline or a given dose of a specific drug, then returned to the home cage 24 hours of data collection.
# Food and water were always freely available in the home cage. Mice were injected with ascending doses of a given drug, with at least 48 hours separating doses. Because there are few studies of drug effects in BTBR mice, the first drug dose tested occasionally elicited unexpectedly large locomotor effects in these animals. In these cases, smaller drug doses were tested next, after a washout period of at least one full day.
Compound,effect on novelty preference (time spent with dummy mouse) (C57 and BTBR mice [1]),"total entries during social novelty test (C57 and BTBR mice [2]; 1 mg/kg, C57 mice)",core body temperature change (C57 and BTBR mice [3]; either mouse strain),effect on core temperature (C57 and BTBR mice [3]; C57 and BTBR mice),"core temperature response, comparison of strains (C57 and BTBR mice [3]; IP)","rise in core body temperature (C57 and BTBR mice [3]; IP, any of the doses tested, C57 and BTBR mice)","dose at which hypothermic effects are noted (C57 and BTBR mice [3]; IP, both strains)","hypothermic effects after injection (C57 and BTBR mice [3]; IP, both strains, greater in C57 at 10, 18, 30 and 56 mg/kg)","compartment entries during social novelty test (stimulation) (C57 and BTBR mice [2]; 1 mg/kg, BTBR mice, compared to (R)-I, racemic MDMA and saline)","compartment entries during social novelty test, change of stimulation with dose (C57 and BTBR mice [2]; BTBR mice)","compartment entries during social novelty test, change of stimulation with dose (C57 and BTBR mice [2]; C57 mice)",core body temperature change (C57 and BTBR mice [3]; C57 mice)
"c1cc2c(cc1C[C@H]1CCCN1)OCO2 [(R)-I, (R)-2-[(2H-1,3-benzodioxol-5-yl)methyl]pyrrolidine]",no systematic effects,only slightly increased,did not elicit a rise or drop in core body temperature,hypothermic effect,more acute response in C57 mice,did not result in a rise in core body temperature,≥ 10 mg/kg,dose-dependent hypothermic effects,,,,
"c1cc2c(cc1C[C@@H]1CCCN1)OCO2 [(S)-I, (S)-2-[(2H-1,3-benzodioxol-5-yl)methyl]pyrrolidine]",no systematic effects,only slightly increased,,hypothermic effect,more acute response in C57 mice,,,,substantially stimulated,increase with increasing dose,reverses,significant drop in temperature
